Source: paper PMC4343023, “Selectivity of odorant-binding proteins from the southern house mosquito tested against physiologically relevant ligands” (Frontiers in Physiology, 2015)
Where two headings read alike, the source gives them in different places.

Columns and labels:
AfunOBP1 = system: AfunOBP1; design: method as in Xu et al., 2010; conditions: panel of EAG-active compounds; ref Xu et al., 2010; cited from earlier work
CquiOBP1 [1] = target: T1, CquiOBP1 (Culex quinquefasciatus, UniProt Q8T6I2); assay: biochemical; format: binding; conditions: for Int (fluorescence emission): residual NPN fluorescence, normalized to 100 prior to ligand, screen at 2–20 μM ligand
T1 sequence (Q8T6I2 entry or part of it): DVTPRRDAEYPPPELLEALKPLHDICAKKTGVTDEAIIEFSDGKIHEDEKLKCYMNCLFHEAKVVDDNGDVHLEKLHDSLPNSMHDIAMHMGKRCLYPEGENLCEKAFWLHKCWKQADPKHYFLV
Experimental: (§1) Binding affinity (Ban et al., [2002]) was tested with a panel of 34 compounds, including attractants, a mosquito oviposition pheromone, repellents, terpenoids and other putative mosquito attractants or repellents. Unless otherwise specified, they were purchased from Sigma-Aldrich/Fluka/Acros (St. Louis, MO). Repellents: DEET (N,N-diethyl-3-methylbenzamide), PMD (p-mentan-3,8-diol) (Bedoukian Research, Inc.), picaridin (butan-2-yl 2-(2-hydroxyethyl)piperidine-1-carboxylate), IR3535 (ethyl 3-[acetyl(butyl)amino]propanoate) (gifts from Dr. Kamal Chauhan, USDA, ARS, Beltsville), (±)-citronellal, and ethyl 2-phenylacetate. Oviposition attractants: (5R,6S)-6-acetoxy-5-hexadecanolide, MOP (Bedoukian Research, Inc.), skatole, indole, 4-methylphenol, and 4-ethylphenol. Human derived compounds: nonanal, 6-methyl-5-hepten-2-one (sulcatone). Terpenoids and other putative attractants/repellents: linalool, linalool oxide, eucalyptol, camphor, fenchone, thujone, geranyl acetate, eugenol, (Z)-3-hexenyl acetate, 1-octen-3-ol, 1-octyn-3-ol, 3-octanol, 1-hexanol, methylcyclohexanol, methyl salicylate, cyclohexanone, acetophenone, benzaldehyde, 3,5-dimethoxybenzene, 1,2-dimethoxybenzene, and 2-phenylethanol.
(§2) Fluorescence spectra were recorded in a right angle configuration on a spectrofluorimeter (RF-5301, Shimadzu, Kyoto, Japan) at room temperature using a 1 cm light path fluorimeter quartz cuvette. Slit widths of 10 nm were selected for both excitation and emission. N-phenyl-1-naphthylamine (NPN, or 1-NPN) (Ban et al., [2002]) was dissolved in methanol to yield a 1 mM stock solution. The binding affinity for NPN was determined by adding aliquots of NPN into a 10 μg/ml (microgram) protein sample. NPN was excited at 337 nm and emission spectra were recorded at high speed scanning between 350 and 500 nm. All ligands used in competition experiments were dissolved in spectrophotometric grade methanol. Binding data were collected in three independent measurements. Bound ligand was evaluated from fluorescence intensity assuming that the protein was 100% active, with a stoichiometry of 1:1 (protein: ligand) at saturation. The KNPN values were estimated using Prism 5 (GraphPad Software, Inc., La Jolla, CA) by non-linear regression for a unique site of binding. The curves were linearized using Scatchard plots. Dissociation constants of the competitors were calculated according to Campanacci et al. ([2001]) from the corresponding IC50 values in the equation: Kdiss = [IC50]/1+[NPN]/KNPN, where [NPN] is the free concentration of NPN and KNPN is the dissociation constant of the complex protein/NPN.

CquiOBP2 = CquiOBP2 (Culex quinquefasciatus, UniProt C7BDZ6); assay: biochemical; format: binding; conditions: for Int (fluorescence emission): residual NPN fluorescence, normalized to 100 prior to ligand, screen at 2–20 μM ligand
Chain of CquiOBP2 (C7BDZ6 entry or part of it): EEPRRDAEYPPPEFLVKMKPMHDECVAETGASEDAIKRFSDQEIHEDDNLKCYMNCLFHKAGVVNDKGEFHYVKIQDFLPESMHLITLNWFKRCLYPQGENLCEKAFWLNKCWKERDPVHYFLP
Experimental: as §1, §2

CquiOBP5 = CquiOBP5 (Culex quinquefasciatus, UniProt C7BDZ9); assay: biochemical; format: binding; conditions: for Int (fluorescence emission): residual NPN fluorescence, normalized to 100 prior to ligand, screen at 2–20 μM ligand
Chain of CquiOBP5 (C7BDZ9 entry or part of it): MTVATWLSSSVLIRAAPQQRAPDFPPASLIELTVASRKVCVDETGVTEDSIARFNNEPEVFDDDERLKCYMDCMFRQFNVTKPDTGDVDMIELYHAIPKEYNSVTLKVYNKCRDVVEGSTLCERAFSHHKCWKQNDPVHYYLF
Experimental: as §1, §2

CquiOBP1 [2] = target: T1, CquiOBP1; assay: pH-dependent binding assay; conditions: CquiOBP1-NPN quenching by ligand, pH 4.5 to 8, 4PL fit
Experimental: To investigate the effects of pH on CquiOBP1–ligand complexes, fluorescence binding assay was measured between CquiOBP1 and three best ligands at different pH values. Buffer were prepared into two different ways: starting from 1M phosphate buffer, pH 4, pH was increased and adjusted by adding sodium hydroxide. Then protein was added to make a solution at each tested pH from 4.5 to 8. Experiments were repeated starting from pH 8 and lowering the pH by adding hydrochloric acid. Each tested solution had 200 mM buffer and 10 μg/ml (microgram) of CquiOBP1. As there were no significant differences in fluorescence data generated at a certain pH regardless of having the pH raised by adding NaOH or lowered by addition of HCl, data were pooled for subsequent analysis.
The pH of the midpoint transitions was obtained by non-linear fitting, sigmoidal with an equation for four-parameter logistic (4PL) of curve segments between the lowest and highest decrease in fluorescence (the rising part of each curve). The pH values calculated for the midpoint transitions with MOP, picaridin, and nonanal were 6.3, 5.8, and 5.5, respectively. Although the pH at the surface of dendritic membrane is not known, it is predicted that too low midpoint transition may lead to odorants being trapped in OBPs and not being properly delivered. In short, the acidity at the surface of the membrane may not be enough to trigger release of a ligand with too low midpoint transition pH. By considering only the dissociation constants obtained by in vitro binding assays (Table 1), one could reasonably argue that CquiOBP1 is involved in reception of nonanal. […] Next, we compared how these ligands would interact with CquiOBP1.

AgamOBP1 = system: AgamOBP1; design: method as in Biessmann et al., 2010; conditions: ref Biessmann et al., 2010; cited from earlier work
[3] = system: Mosquitoes with reduced transcripts of CquiOBP1; design: method as in Pelletier et al., 2010; conditions: ref Pelletier et al., 2010; cited from earlier work
AaegOBP1 = system: AaegOBP1; design: method as in Leal and Leal, 2015; conditions: ref Leal and Leal, 2015; cited from earlier work
[4] = CquiOBP1, NPN displacement titration, read-out: IC50
[5] = CquiOBP1, calculated from IC50 of NPN displacement, read-out: Kd
[6] = CquiOBP2, NPN displacement titration, read-out: IC50
[7] = CquiOBP2, calculated from IC50 of NPN displacement, read-out: Kd
[8] = CquiOBP5, NPN displacement titration, read-out: IC50
[9] = CquiOBP5, calculated from IC50 of NPN displacement, read-out: Kd

Row | Structure (SMILES) | Int (fluorescence emission) (CquiOBP1 [1]; CquiOBP1) | Int (fluorescence emission) (CquiOBP2; CquiOBP2) | Int (fluorescence emission) (CquiOBP5; CquiOBP5) | IC50 (CquiOBP1 [1]; [4]) [µM] | Kd (CquiOBP1 [1]; [5]) [µM] | IC50 (CquiOBP2; [6]) [µM] | Kd (CquiOBP2; [7]) [µM] | IC50 (CquiOBP5; [8]) [µM] | Kd (CquiOBP5; [9]) [µM] | also measured
1 | CCCCCCCCCC(C)=O [2-undecanone] | – | – | – | – | – | – | – | – | – | binding to AfunOBP1 (AfunOBP1): best ligand
2 | CCC(C)OC(=O)N1CCCCC1CCO (centres unmarked) [Picaridin, butan-2-yl 2-(2-hydroxyethyl)piperidine-1-carboxylate] | 51 | 77 | 45 | – | – | – | – | – | – | IC50 (CquiOBP1 [1]): 10.2 µM; Kd (CquiOBP1 [1]): 6.4 µM; IC50 (CquiOBP2): > 10 µM; Kd (CquiOBP2): > 2.5 µM; IC50 (CquiOBP5): 7.9 µM; Kd (CquiOBP5): 5.6 µM; pH of the midpoint transition (CquiOBP1 [2]): 5.8
3 | c1ccc2[nH]ccc2c1 [Indole, indole] | 86 | 87 | 80 | > 10 | > 6.3 | > 10 | > 2.5 | > 10 | > 7 | binding to AgamOBP1 (AgamOBP1): selectively bind
4 | O=Cc1ccccc1 [Benzaldehyde, benzaldehyde] | 83 | 91 | 93 | – | – | – | – | – | – | IC50 (CquiOBP1 [1]): > 10 µM; Kd (CquiOBP1 [1]): > 6.3 µM; IC50 (CquiOBP2): > 10 µM; Kd (CquiOBP2): > 2.5 µM; IC50 (CquiOBP5): > 10 µM; Kd (CquiOBP5): > 7 µM
5 | CCCCCCCCC=O [Nonanal, nonanal] | 51.4 | 87 | 46.5 | 10.5 | 6.6 | > 10 | > 2.5 | 8.3 | 5.8 | pH of the midpoint transition (CquiOBP1 [2]): 5.5; EAG responses, knockdown vs wild type [3]: not significantly different
6 | C#CC(O)CCCCC (centres unmarked) [1-Octyn-3-ol, 1-octyn-3-ol] | 66 | 92 | 62.2 | > 10 | > 6.3 | > 10 | > 2.5 | 12.8 | 8.9 | –
7 | CCOC(=O)Cc1ccccc1 [Ethyl 2-phenylacetate, ethyl 2-phenylacetate] | 92 | 87 | 91 | – | – | – | – | – | – | IC50 (CquiOBP1 [1]): > 10 µM; Kd (CquiOBP1 [1]): > 6.3 µM; IC50 (CquiOBP2): > 10 µM; Kd (CquiOBP2): > 2.5 µM; IC50 (CquiOBP5): > 10 µM; Kd (CquiOBP5): > 7 µM
8 | CC12CCC(C1)C(C)(C)C2=O (centres unmarked) [Fenchone, fenchone] | 89 | 87 | 92 | > 10 | > 6.3 | > 10 | > 2.5 | > 10 | > 7 | –
9 | C=CC(O)CCCCC (centres unmarked) [1-Octen-3-ol, 1-octen-3-ol] | 69 | 93 | 59 | > 10 | > 6.3 | > 10 | > 2.5 | 11.6 | 8.1 | –
10 | c1ccc(Nc2cccc3ccccc23)cc1 [NPN, N-phenyl-1-naphthylamine] | – | – | – | – | – | – | – | – | – | Kd (CquiOBP1 [1]; direct titration of CquiOBP1 (10 μg/ml) with NPN, read-out: Kd for NPN): 1.71 ± 0.13 µM; Kd (CquiOBP2; direct titration of CquiOBP2 (10 μg/ml) with NPN, read-out: Kd for NPN): 0.5 ± 0.02 µM; Kd (CquiOBP5; direct titration of CquiOBP5 (10 μg/ml) with NPN, read-out: Kd for NPN): 2.3 ± 0.19 µM
11 | Cc1ccc(O)cc1 [4-Methylphenol, 4-methylphenol] | 73 | 85 | 90 | > 10 | > 6.3 | > 10 | > 2.5 | > 10 | > 7 | –
12 | CCCCCCCCCC[C@H](OC(C)=O)[C@H]1CCCC(=O)O1 [MOP, (5R,6S)-6-acetoxy-5-hexadecanolide] | 48 | 86 | 52 | 8.4 | 5.3 | > 10 | > 2.5 | 10.3 | 7.2 | binding to CquiOBP1 (in words) (CquiOBP1 [1]; in vitro, NPN displacement): bound; binding to CquiOBP2 (in words) (CquiOBP2; in vitro, NPN displacement): cannot displace NPN; binding to CquiOBP5 (in words) (CquiOBP5; in vitro, NPN displacement): bound; binding to AaegOBP1 (AaegOBP1): bound; pH of the midpoint transition (CquiOBP1 [2]): 6.3; EAG responses, knockdown vs wild type [3]: significant lower
